Our source for the IC50 values is patent US20250361511A1, “NANOPARTICLE COMPOSITIONS CONTAINING SIRP-alpha siRNA FOR TREATMENT OF CANCER” (The Texas A&M University System, priority 2024, published 2025).

In assay [1] the test system is OVCAR3 monospheroids. The assay can be described thus: Response to carboplatin chemotherapy, MTS viability, monospheroids. The class given is cell-based. How it is done: (§1) Spheroid formation on 384-well hanging drop arrays. OvCa monospheroids or OvCa/macrophage heterospheroids were formed on a 384-well hanging drop array following well-established protocols. OvCa monospheroids were initiated with 100 cells in a 20 μL drop of growth medium. To create OvCa/macrophage heterospheroids, the hanging drop platform was first leveraged to differentiate THP-1 monocytes to M0 macrophages by phorbol ester exposure20. Following a 3-day differentiation, macrophages were harvested and mixed with OvCa cells (50:50) to create heterospheroids. Monospheroid or heterospheroid formation was visually confirmed using phase contrast microscopy at day 4.
(§2) Response to chemotherapy. Carboplatin (MedChemExpress, Monmouth Junction, NJ) was dissolved by sonication in sterile PBS at a stock concentration of 5 mg/mL. OVCAR3 monospheroids or OVCAR3/macrophage heterospheroids formed over 4 days were treated with 0-500 μM carboplatin and incubated for 2 days/48 hours. An MTS assay was then used to determine the percent cell viability in carboplatin-treated spheroids compared to untreated controls. IC50 values were calculated with the GraphPad Prism normalized log (inhibitor) variable slope nonlinear fit function.
(§3) siSIRPα LNP immune checkpoint treatment. Mono-or hetero-spheroids were treated with 25 nM siSIRPα LNP on day 2 in hanging drop culture. LNP ability to reduce both macrophage SIRPα expression and OvCa metastatic behavior were evaluated over 4 more days.

Assay [2] deals with OVCAR3/macrophage heterospheroids. The assay can be described thus: Response to carboplatin chemotherapy, MTS viability, heterospheroids. Format: cell-based. How it is done: as §1, §2, §3

What is called IC50 is the midpoint of a concentration-inhibition curve. Take `N.N.O=C([O-])C1(C(=O)[O-])CCC1.[Pt+2]` [carboplatin]: the IC50 in assay [1] (OVCAR3 monospheroids, carboplatin 0-500 μM, FIG. 1B) came to 114 µM; in assay [1] (monospheroids after siSIRPα LNP, FIG. 15A), 272 µM; in assay [1] (monospheroids, control, 0-500 μM for 48 hours, MTS, FIG. 10C/15A) it was 218 µM; in assay [2] (OVCAR3/THP1 OvCa/MP hetero-spheroids, no LNP, FIG. 1B/6B) it was 536 µM; in assay [2] (OvCa/MP hetero-spheroids treated with siSIRPα-LNP, FIG. 6B), 213 µM; in assay [2] (heterospheroids with 25 nM siSIRPα LNP treatment, FIG. 14B) it was 321 ± 54.6 µM. Besides, the IC50 in assay [2] (heterospheroids with negative control (scramble) siRNA LNP, FIG. 15C) turned out to be 405 µM; in assay [2] (heterospheroids, no treatment, 0-500 μM for 48 hours, MTS, FIG. 10C/14B/15C) it was 368 µM.
